Experimental data from patent US9034846B2, “Use of cyclodextrin for treatment and prevention of bronchial inflammatory diseases” (UNIVERSITE DE LIEGE, priority 2004, dated 2015).

Key:
OVA exposed mice [1] = test: Peribronchial eosinophil infiltration (Congo Red), OVA mouse model; assay type: in vivo; settings: after allergen exposure; FIG. 3
Experimental: (§1) In order to study modulation of airway inflammation, males BALB/c mice of 6 to 8 weeks old were sensitized by intraperitoneal injection of 10 μg ovalbumin (OVA) (Sigma Aldrich, Schnelldorf, Germany) emulsified in aluminum hydroxyde (AlumInject; Perbio, Erembodegem, Belgium) on days 1 and 8. Mice were subsequently exposed to allergens by daily inhalation of an aerosol of OVA 1%, for 30 minutes, generated by ultrasonic nebulizer (Devilbiss 2000), from day 21 to 27. Mice were subjected to inhalation of β-CD, HP-β-CD HP 1, 7.5, 50 mM and HP-β-CD 50 mM 30 minutes before OVA inhalation. Mice were sacrificed performed on day 28 as previously reported by Cataldo and al in Am. J. Pathol 2002; 161(2):491-498.
(§2) After BAL, the thorax was opened and the left main bronchus was clamped. The left lung was excised and frozen immediately at −80° C. for protein and mRNA extraction. The right lung was infused with 4 ml paraformaldehyde 4%, embedded in paraffin and used for histology. Sections of 5 μm thickness were cut off from paraffin and were stained with haematoxylin-eosin. The extent of peribronchial inflammation was estimated by a score calculated by quantification of peribronchial inflammatory cells, as previously described by Cataldo D D, Tournoy K G, Vermaelen K et al. in Am J Pathol 2002; 161(2):491-498. A value of 0 was adjudged when no inflammation was detectable, a value of 1 when there was occasionally inflammatory cells, a value of 2 when most bronchi were surrounded by a thin layer (1 to 5 cells) of inflammatory cells and a value of 3 when most bronchi were surrounded by a thick layer (>5 cells) of inflammatory cells. Since 5-7 randomly selected tissue sections per mouse were scored, inflammation scores are expressed as a mean value and can be compared between groups. After Congo Red staining, the eosinophilic infiltration in the airway walls was quantified by manual count and reported to the perimeter of epithelial basement membrane defining an eosinophilic inflammatory score.

OVA exposed mice [2] = test: Bronchoalveolar lavage differential cell counts, OVA mouse model of asthma; assay type: in vivo; settings: for Eosinophils (%) in BAL / Epithelial cells (%) in BAL / Lymphocytes (%) in BAL / Macrophages (%) in BAL / Neutrophils (%) in BAL / Total cells (10^4/ml) in BAL: Table 2
Experimental: as §1
Immediately after assessment of airway responsiveness, and 24 hours after the last allergen exposure.
(§3) Mices were sacrificed and a bronchoalveolar lavage was performed using 4×1 ml PBS-EDTA 0.05 mM (Calbiochem, Darmstadt, Germany) as previously described by Cataldo D D, Tournoy K G, Vermaelen K et al. in Am J Pathol 2002; 161(2):491-498. Cells were recovered by gentle manual aspiration. After centrifugation of bronchoalveolar fluid (BALF) (1200 rpm for 10 minutes, at 4° C.), the supernatant was frozen at −80° C. for protein assessment and the cell pellet was resuspended in 1 ml PBS-EDTA 0.05 mM. The differential cell counts were performed on cytocentrifuged preparations (Cytospin) after staining with Diff-Quick (Dade, Belgium).

OVA exposed mice [3] = test: Peribronchial inflammation score by histology, OVA mouse model; assay type: in vivo
Experimental: (§4) In order to study modulation of airway inflammation, males BALB/c mice of 6 to 8 weeks old were sensitized by intraperitoneal injection of 10 μg ovalbumin (OVA) (Sigma Aldrich, Schnelldorf, Germany) emulsified in aluminum hydroxyde (AlumInject; Perbio, Erembodegem, Belgium) on days 1 and 8. Mice were subsequently exposed to allergens by daily inhalation of an aerosol of OVA 1%, for 30 minutes, generated by ultrasonic nebulizer (Devilbiss 2000), from day 21 to 27. […] Mice were sacrificed performed on day 28 as previously reported by Cataldo and al in Am. J. Pathol 2002; 161(2):491-498.
as §2

IL-13 = IL-13 ELISA in BAL and lung protein extracts, OVA mouse model; assay type: in vivo
Experimental: as §1
The left lung was crushed using a Mikro-Dismembrator (Braun Biotech International, Gmbh Melsungen, Germany). For proteins extraction, the crushed lung tissue was incubated overnight at 4° C. in a solution containing 2M urea, 1M NaCl and 50 mM Tris (pH 7.5) and subsequently centrifuged 15 minutes at 16.000×g. The supernatant was stored at −80° C.
Eotaxin and IL-13 levels were assessed using commercial ELISAs (R&D systems, Abingdon, UK). Eotaxin was measured by incubation in a wheel coated with a primary antibody specifically dedicated to the recognition of the protein and after rinsing, a second antibody against eotaxin, coupled with horse radish peroxydase was used to quantify the amounts of eotaxin in the solution
IL-13 was measured by incubation in a wheel coated with a primary antibody specifically dedicated to the recognition of the protein and after rinsing, a second antibody against IL-13, coupled with horse radish peroxydase was used to quantify the amounts of […] in the solution.

OVA exposed mice [4] = test: Bronchial responsiveness to methacholine (Penh, barometric plethysmograph); assay type: in vivo, mouse; settings: FIG. 10
Experimental: as §4
Twenty-four hours after the last allergen exposure, the bronchial hyper responsiveness was determined by measuring the Penh (Enhanced Pause) using a barometric plethysmograph (Emka technologies, Paris) as proposed by Hamelmann, E., et al., Am. J. Respir. Crit. Care Med. 156 (1997) 766-775). The Penh was measured at baseline and […] after the inhalation of increasing doses (25, 50, 75 and 100 mM) of methacholine (Mch).

mice = test: BAL differential cell counts after exposure to inhaled CRYSMEB (Table 1); assay type: in vivo, mouse
Experimental: as §3, with “Belgium). […]” for “Belgium).”

[5] = reference therapy, concentration not given
[6] = exposure to aerosolized CRYSMEB 30 min/day during 7 days

## OC[C@H]1O[C@@H]2O[C@H]3[C@H](O)[C@@H](O)[C@@H](O[C@H]4[C@H](O)[C@@H](O)[C@@H](O[C@H]5[C@H](O)[C@@H](O)[C@@H](O[C@H]6[C@H](O)[C@@H](O)[C@@H](O[C@H]7[C@H](O)[C@@H](O)[C@@H](O[C@H]8[C@H](O)[C@@H](O)[C@@H](O[C@H]1[C@H](O)[C@H]2O)O[C@@H]8CO)O[C@@H]7CO)O[C@@H]6CO)O[C@@H]5CO)O[C@@H]4CO)O[C@@H]3CO [β-CD, β-cyclodextrin]
OVA exposed mice [1]
  peribronchial eosinophil infiltration: decrease reached statistical significance
OVA exposed mice [2]; after allergen exposure, concentration not given, FIG. 1
  number of eosinophils in BAL: tendency to increase
OVA exposed mice [3]; concentration not given, FIG. 2
  peribronchial inflammation score: did not reduce
IL-13; FIG. 7b
  IL-13 levels in BAL: increased

## C[C@@H]1C[C@H]2[C@@H]3C[C@H](F)C4=CC(=O)C=C[C@]4(C)[C@@]3(F)[C@@H](O)C[C@]2(C)[C@@]1(O)C(=O)SCF [Fluticasone, reference compound]
OVA exposed mice [2]; [5]
  Eosinophils (%) in BAL: 32.92 ± 7.306 %
  Epithelial cells (%) in BAL: 22.85 ± 5.343%
  Lymphocytes (%) in BAL: 1.68 ± 0.7115%
  Macrophages (%) in BAL: 40.52 ± 3.122%
  Neutrophils (%) in BAL: 1.85 ± 1.093%
  Total cells (10^4/ml) in BAL: 75.92 ± 11.922 10^4/ml

## 2-O-methyl βcyclodextrin [CRYSMEB]
OVA exposed mice [4]; 10 mM inhalation
  methacholine-induced Penh increase: reduced
OVA exposed mice [4]; after allergen exposure, extent comparable to fluticasone
  responsiveness to methacholine: significantly reduced
OVA exposed mice [2]; Example 2, treated groups vs placebo
  Bronchoalveolar lavage eosinophilia: significantly decreased
OVA exposed mice [2]; 10 mM
  Eosinophils (%) in BAL: 8.84 ± 2.946 %
  Epithelial cells (%) in BAL: 36.83 ± 5.644%
  Lymphocytes (%) in BAL: 0.214 ± 0.1079%
  Macrophages (%) in BAL: 52.714 ± 6.49%
  Neutrophils (%) in BAL: 1.26 ± 0.4587%
  Total cells (10^4/ml) in BAL: 131.93 ± 33.637 10^4/ml
OVA exposed mice [3]; 20 mM, compared to placebo, FIG. 9A
  peribronchial inflammation score: decreased inflammation score
mice; [6]
  cellular composition of the bronchoalveolar lavage: not significantly altered
  eosinophil and neutrophil counts in BAL: no differences
mice; inhaled 20 mM
  Eosinophils (%) in BAL: 0.0375 ± 0.0375%
  Epithelial cells (%) in BAL: 29.9 ± 5.909%
  Lymphocytes (%) in BAL: 0.425 ± 0.1485%
  Macrophages (%) in BAL: 69.5 ± 5.956%
  Neutrophils (%) in BAL: 0.0375 ± 0.1061%
mice; inhaled 50 mM
  Eosinophils (%) in BAL: 0.1125 ± 0.0789%
  Epithelial cells (%) in BAL: 36.1375 ± 4.52%
  Lymphocytes (%) in BAL: 0.275 ± 0.1161%
  Macrophages (%) in BAL: 63.1625 ± 4.695%
  Neutrophils (%) in BAL: 0.2 ± 0.3505%
mice; inhaled 75 mM
  Eosinophils (%) in BAL: 0.0375 ± 0.0375%
  Epithelial cells (%) in BAL: 30.8875 ± 1.349%
  Lymphocytes (%) in BAL: 0.075 ± 0.0491%
  Macrophages (%) in BAL: 68.9 ± 1.334%
  Neutrophils (%) in BAL: 0.0375 ± 0.1061%
IL-13; FIG. 11
  levels of IL-13 in whole lung protein extracts: significantly decreased
